The values that follow are results of earlier work, collected in US20240398979A1, “Compositions and Methods for Treating Dopamine Disorders” (METAQOR LLC, priority 2020, published 2024).

Data set [1] concerns methamphetamine use disorder. Particulars: randomized controlled trials / meta-analyses.

Regarding `O=C1CC[C@@]2(O)[C@H]3Cc4ccc(O)c5c4[C@@]2(CCN3CC2CC2)[C@H]1O5` [naltrexone], in data set [1], the “benefit in treatment of MUD” value is listed as “insufficient evidence of benefit for reducing MUD”.
With `CN[C@H]1CC[C@@H](c2ccc(Cl)c(Cl)c2)c2ccccc21` [sertraline], in data set [1], the “benefit in treatment of MUD” value is on record as “not effective”.
As to `COC(=O)C(c1ccccc1)C1CCCCN1` (stereo not shown) [methylphenidate], the “benefit in treatment of MUD” value in data set [1] was “low-strength evidence that methylphenidate may reduce METH use”.
`NCC(CC(=O)O)c1ccc(Cl)cc1` (stereo not shown) [baclofen]: in data set [1], the “benefit in treatment of MUD” value is reported as “insufficient evidence of benefit for reducing MUD”.
For `CNCC[C@@H](Oc1ccccc1C)c1ccccc1` [atomoxetine], the “benefit in treatment of MUD” value in data set [1] is “insufficient evidence of benefit for reducing MUD”.
In the case of `CC(NC(C)(C)C)C(=O)c1cccc(Cl)c1` (stereo not shown) [bupropion], in data set [1], the “benefit in treatment of MUD” value was “not effective”.
Turning to `CN1CCN2c3ncccc3Cc3ccccc3C2C1` (stereo not shown) [mirtazapine], the “benefit in treatment of MUD” value in data set [1] was “not effective”.
With `CC1(C)O[C@@H]2[C@@H](CO[C@@]3(COS(N)(=O)=O)OC(C)(C)O[C@@H]23)O1` [Topiramate], the “benefit in treatment of MUD” value in data set [1] is on record as “insufficient evidence of benefit for reducing MUD”.
For `O=C1CCc2ccc(OCCCCN3CCN(c4cccc(Cl)c4Cl)CC3)cc2N1` [aripiprazole], the “benefit in treatment of MUD” value in data set [1] is “insufficient evidence of benefit for reducing MUD”.
On to `NCC1(CC(=O)O)CCCCC1` [gabapentin], for which the “benefit in treatment of MUD” value in data set [1] is “insufficient evidence of benefit for reducing MUD”.
For `c1cnc2cc3c(cc2n1)[C@@H]1CNC[C@H]3C1` [varenicline], the “benefit in treatment of MUD” value in data set [1] is given as “insufficient evidence of benefit for reducing MUD”.
For `Cc1nccn1CC1CCc2c(c3ccccc3n2C)C1=O` (stereo not shown) [ondansetron], in data set [1], the “benefit in treatment of MUD” value is given as “No effects”.

B1: brain-derived neurotrophic factor (protein, UniProt P23560 19-247, looked up)
Neurotrophic factor BDNF …: APMKEANIRGQGGLAYPGVRTHGTLESVNGPKAGSRGLTSLADTFEHVIEELLDEDQKVRPNEENNKDADLYTSRVMLSSQVPLEPPLLFLLEEYKNYLDAANMSMRVRRHSDPARRGELSVCDSISEWVTAADKKTAVDMSGGTVTVLEKVPVSKGQLKQYFYETKCNPMGYTKEGCRGIDKRHWNSQCRTTQSYVRALTMDSKKRIGWRFIRIDTSCVCTLTIKRGR
notes: neurotrophin
On to B1, for which the in vivo half-life is under 5 min.
